Target: Sucrase-isomaltase, intestinal (Rattus norvegicus, UniProt P23739)
Assay: Inhibition of rat intestinal sucrase

Chain of Sucrase-isomaltase, intestinal (P23739 1-1013 limits assumed): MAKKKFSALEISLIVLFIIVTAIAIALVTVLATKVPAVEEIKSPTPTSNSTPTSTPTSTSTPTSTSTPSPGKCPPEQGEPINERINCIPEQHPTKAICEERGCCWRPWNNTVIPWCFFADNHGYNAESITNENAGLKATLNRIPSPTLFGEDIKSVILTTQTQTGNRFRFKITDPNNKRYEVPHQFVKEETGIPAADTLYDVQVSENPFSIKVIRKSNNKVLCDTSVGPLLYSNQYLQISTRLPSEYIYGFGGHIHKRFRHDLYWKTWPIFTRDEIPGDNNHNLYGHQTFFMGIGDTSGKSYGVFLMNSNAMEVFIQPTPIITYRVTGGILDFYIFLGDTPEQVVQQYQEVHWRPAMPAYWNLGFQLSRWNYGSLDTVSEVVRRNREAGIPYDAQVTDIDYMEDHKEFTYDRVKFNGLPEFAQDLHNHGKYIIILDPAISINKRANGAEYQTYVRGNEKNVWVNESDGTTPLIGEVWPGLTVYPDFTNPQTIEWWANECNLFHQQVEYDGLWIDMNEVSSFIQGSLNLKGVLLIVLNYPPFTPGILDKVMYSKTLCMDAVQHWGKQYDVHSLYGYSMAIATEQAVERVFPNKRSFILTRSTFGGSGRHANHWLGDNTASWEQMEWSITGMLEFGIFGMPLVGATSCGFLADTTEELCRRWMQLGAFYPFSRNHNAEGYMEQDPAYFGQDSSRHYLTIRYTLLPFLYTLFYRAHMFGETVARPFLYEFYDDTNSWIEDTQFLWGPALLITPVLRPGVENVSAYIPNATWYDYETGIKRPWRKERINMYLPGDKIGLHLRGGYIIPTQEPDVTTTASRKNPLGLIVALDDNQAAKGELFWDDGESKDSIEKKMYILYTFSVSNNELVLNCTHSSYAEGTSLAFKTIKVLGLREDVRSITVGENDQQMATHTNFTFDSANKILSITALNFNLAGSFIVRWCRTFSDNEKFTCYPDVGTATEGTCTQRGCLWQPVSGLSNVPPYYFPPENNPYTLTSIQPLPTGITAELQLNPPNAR
Chain of Sucrase-isomaltase, intestinal (P23739 1014-1841 limits assumed): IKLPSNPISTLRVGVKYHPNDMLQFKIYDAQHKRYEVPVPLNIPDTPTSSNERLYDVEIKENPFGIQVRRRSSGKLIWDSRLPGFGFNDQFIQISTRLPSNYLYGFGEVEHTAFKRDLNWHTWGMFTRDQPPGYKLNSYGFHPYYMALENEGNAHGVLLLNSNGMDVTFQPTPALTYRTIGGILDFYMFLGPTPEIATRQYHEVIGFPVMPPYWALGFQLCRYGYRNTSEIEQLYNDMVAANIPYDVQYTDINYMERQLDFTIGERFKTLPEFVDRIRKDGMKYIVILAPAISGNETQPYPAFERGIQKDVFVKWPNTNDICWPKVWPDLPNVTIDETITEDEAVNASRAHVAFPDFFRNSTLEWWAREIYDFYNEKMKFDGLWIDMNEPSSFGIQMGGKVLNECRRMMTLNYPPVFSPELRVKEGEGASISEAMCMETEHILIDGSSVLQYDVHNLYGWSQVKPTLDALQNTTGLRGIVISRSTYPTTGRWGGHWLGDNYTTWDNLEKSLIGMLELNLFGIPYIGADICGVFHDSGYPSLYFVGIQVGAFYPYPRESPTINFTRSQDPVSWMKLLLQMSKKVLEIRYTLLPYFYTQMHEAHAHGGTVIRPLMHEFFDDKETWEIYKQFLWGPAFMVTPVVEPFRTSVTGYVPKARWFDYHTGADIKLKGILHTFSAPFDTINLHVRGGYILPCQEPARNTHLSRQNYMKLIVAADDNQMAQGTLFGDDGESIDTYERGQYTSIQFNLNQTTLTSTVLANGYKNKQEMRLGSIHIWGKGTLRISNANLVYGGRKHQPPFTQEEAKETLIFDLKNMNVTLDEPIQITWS

Row | SMILES | IC50 [µM]
1 | O[C@H]1[C@H](O)[C@@H](O)CN2C[C@@H](O)[C@@H](O)[C@H]12 | 3.1
2 | O[C@H]1[C@H]2[C@H](O)[C@H](O)CN2[C@H](O)C[C@H]1O [UNIFLORINE B] | 1.8
